Experimental data published in PMC3740496, “Synthesis and biological activities of the respiratory chain inhibitor aurachin D and new ring versus chain analogues” (Beilstein Journal of Organic Chemistry, 2013).
Converted amounts (≈) assume the structure as drawn.

Key:
[1] = system: Vero cells (nontumor cells); experiment: Cytotoxicity on Vero cells (MTT); type: cell-based; conditions: 48 h incubation
Method: (§1) was further incubated for 1.5 h. The medium was then discarded and 100 µL 2-propanol/10 N HCl (250:1) was added in order to dissolve formazan granules. The absorbance at 570 nm was measured using a microplate reader (EL808, Bio-Tek Instruments Inc.) and cell viability was expressed as a percentage relative to the respective solvent control. VERO cells: VERO cells were seeded into 96-well microplates at 10^5 cells per mL in RPMI supplemented with 10% foetal calf serum.
After 24 h, the cells were washed and two microliters of two-fold serial dilutions of each compound (10 mg/mL) was added to 100 μL of medium. Cells were then incubated for 48 h at 37 ° C under a 5% CO2 atmosphere. At the end of incubation, 20 µL of MTT solution (5 mg/mL) was added to each well and further incubated for 4 h at 37 °C to allow the formation of formazan. The crystals of formazan were then dissolved with 100 µL of a freshly prepared solution of sodium dodecyl sulfate (SDS) 10% (15 mL) and HCl 1 N (150 µL). The optical density of each well was measured at 595 nm using a multiwell plate reader. The 50% inhibition concentration was then determined by curve fitting.
MMP assay: Human U-2 OS osteosarcoma cells (HTB-96) were obtained from the American Type Culture Collection (ATCC) and were cultured under the conditions recommended by the depositor. Cells from actively growing cultures were harvested and seeded at 8 × 10^3 cells per well in 96-well imaging plates (BD Falcon). After 1 d cells reached approximately 60% confluency and were treated with aurachin analogues at the assigned concentrations for 16 h. In addition, cells were stimulated with 1 µM FCCP [carbonyl cyanide 4-(trifluoromethoxy)phenylhydrazone] as a positive control 1 h prior to the measurement. For labeling, cells were washed twice with assay buffer ([…], 5.4 mM KCl, 2 mM MgCl2, 10 mM glucose, 2 mM CaCl2, 10 mM HEPES; pH 7.35) and 100 µL of a staining solution (50 nM TMRM,

bacterial cytochrome bd = system: bacterial cytochrome bd; parameters: method as in PMID 7827023; conditions: cited from earlier work
[2] = Cytotoxicity, growth inhibition (MTT); type: cell-based, human; conditions: human, cell line not named at the place (Table 2: HCT-116 and K562); read-out: cytotoxic activity (IC50) on mammalian cell lines
Method: The cytotoxic activity of aurachin D (4) and analogues 9–11 and 17–19 was evaluated in growth inhibition experiments on mammalian cell lines (Table 2). After 5 days treatment, half inhibitory concentrations (IC50) were determined for human HCT-116 colon carcinoma and human K562 myelogenous leukemia cells. […]
as §1, with “VERO cells: VERO cells were seeded into 96-well microplates at 10^5 cells per mL in RPMI supplemented with 10% foetal calf serum.” left out

In the case of `CC(C)=CCC/C(C)=C/CC/C(C)=C/Cc1c(C)[nH]c2ccccc2c1=O` [compound 4, aurachin D], the IC50 [1] is given as 13.8 µg/mL (≈ 38 µM) and the “inhibition of the cytochrome bd complex” value (bacterial cytochrome bd) is given as “selectively inhibit”.
Work on `CC(C)=CCC/C(C)=C/Cc1c(C)[nH]c2ccccc2c1=O` [compound 9] yielded a melting point of 187 to 189 °C.
`COc1ccc2[nH]c(C)c(CC=C(C)CCC=C(C)CCC=C(C)C)c(=O)c2c1` [compound 18] showed an IC50 at 5 days [2] of roughly 1 µg/mL (≈ 2.54 µM).
With `CC(C)=CCCC(C)=CCCC(C)=CCc1c(C)[nH]c2cc3c(cc2c1=O)OCO3` [compound 19] the IC50 [1] was 4.4 µg/mL (≈ 10.8 µM) and the melting point was 298 to 300 °C (dec.).
